Type in all cases: in vivo, BALB/c mice
In assay [1] the test system is Ad-TSHR-immunized mice. Briefly: heart weights upon necropsy. The settings on record: 1 mg/kg IV 4-weekly, necropsy at end of experiment. As to the method: (§1) In FIG. 7 the effect of the peptide therapy on heart rates at various times during the experiment (A), and on heart weights (B) and cardiac ventricular volumes (C) at the end of the experiment were evaluated in all animals. The measurements were carried out in Ad-TSHR-immunized mice treated by either 4-weekly injections with vehicle (0.9% NaCl, “Graves' no therapy”, n=25 mice), or administrations of 1 mg/kg body weight of peptide of the invention 836 (12 mice), or of peptide 829 (13 mice), or TSHR-Fc (18 mice). In addition, age-matched immunologically naïve unimmunized mice (“healthy”, 19 animals) were investigated. Data are represented as mean±SEM. Significance over time was tested by analysis of variance (ANOVA) of groups at given time points, and controlled by ANOVA for repeated measurements within one group, followed by LSD post-hoc testing. *p<0.05, and **p<0.005, compared to the TSHR-immunized group treated with only NaCl (“Graves' no therapy”).
Due to unavailability of some fine histological sections, analysis of this parameter in mice treated with other peptides could unfortunately not be completed.

Assay [2] relates to Ad-TSHR-immunized mice. Nature of the assay: ECG heart rates in Graves' disease mouse model. To be noted: 1 mg/kg IV 4-weekly, ECG under anaesthesia. As for the experimental part:
as §1
When mice were subjected to anaesthesia for immunisation, their heart function was monitored with an electrocardiogram (ECG amplifier module, Harvard Apparatus, Hugo Sachs electronics) and recorded with a special software, which allows to determine the heart rate from the ECG reading (Haemodyn, Hugo Sachs electronics). ECG was also performed in anaesthesia before animals were euthanized for histological exam at the end of the study.

In assay [3] the test system is Ad-TSHR-immunized mice. Nature of the assay: serum thyroxin (T4) levels in Graves' disease mouse model. The settings on record: 1 mg/kg IV 4-weekly, after start of therapy (week 11). As to the method: In FIG. 5 the effects of peptide therapy on serum thyroxin levels were evaluated. The measurements were carried out in Ad-TSHR-immunized mice treated by either 4-weekly injections with vehicle (0.9% NaCl, “Graves' no therapy”, n=25 mice), or administrations of 1 mg/kg body weight of peptide of the invention 836 (12 mice), or of peptide 829 (13 mice), or TSHR-Fc (18 mice), or of control peptide 835 (13 mice). In addition, age-matched immunologically naïve unimmunized mice (“healthy”, 19 animals) were investigated. Data are represented as means±SEM. Significance over time was tested by analysis of variance (ANOVA) of groups at given time points, and controlled by ANOVA for repeated measurements within one group, followed by LSD post-hoc testing. *p<0.05, and **p<0.005, compared to the TSHR-immunized group treated with only NaCl (“Graves' no therapy”).
(§2) The study protocol used three 3-weekly immunizations (“initiation”) and followed by a “maintenance” phase with further regular 4-weekly boosts until the 9th immunisation, as described before (22). Mice were randomly assigned to therapeutic groups. Therapy (either 1 mg/kg body weight peptides or 0.9% NaCl vehicle control) was given 1 week after the 4th immunization by IV injection into a tail vein, and then continued at 4-weekly intervals, as described before for the treatment of anti-β1AR (16). The fusion protein TSHR-Fc was given IV at identical times at doses of 1 mg/kg, but had to be applied together with the histamine receptor blocker clemastin (Tavegil®) at a dose of 0.02 mg per mouse (25 g body weight) to avoid clinical symptoms of allergic reaction, which had been observed in initial pilot studies of TSHR-Fc administration in mice.
Total thyroxine (T4) was measured by immunoassay kit (#T4044T-100, Calbiotech Inc, Austin, Calif.) in duplicate determination.

Assay [4] deals with Ad-TSHR-immunized mice. Briefly: thyroid size at end of experiment in Graves' disease mouse model. To be noted: 1 mg/kg IV 4-weekly. As to the method: Representative images are shown. In FIG. 4B, the effects of peptide therapy on thyroid sizes were investigated at the end of the experiment. The measurements were carried out in Ad-TSHR-immunized mice treated by either 4-weekly injections with vehicle (0.9% NaCl, “Graves' no therapy”, n=25 mice), or administrations of 1 mg/kg body weight of peptide of the invention 836 (12 mice), or of peptide 829 (13 mice), or of TSHR-Fc (18 mice), or of control peptide 835 (13 mice). In addition, age-matched immunologically naïve unimmunized mice (“healthy”, 19 animals) were investigated. The mean thyroid sizes in mm^3 are shown with SEM. Differences between groups were tested by AVOVA followed by post hoc LSD testing. ** indicates statistical significance (p<0.001) compared to the TSHR-immunized group treated with only NaCl (“Graves' no therapy”).
as §2
After euthanasia, dissection of the thyroid glands was performed under a stereomicroscope, as described before (22). Briefly, cross cuts at the level above the larynx and below the seventh cartilage ring were made and the glands with the tracheae and oesophagi were removed from the necks. Tissue blocks were kept in 4% neutral para-formaldehyde (PFA), washed in PBS 3 times and embedded in optimum cutting temperature (OCT) formulation (Tissue-Tek® O.C.T.™ compound, VWR Chemicals, Leuven, Belgium). Consecutive 5 μm-thick cross sections were cut at a fixed distance of 500 μm using a Leica microtome CM 1850 Cryostat (temperature at −19° C.) and mounted on Thermo Polysine slides (Thermo Scientific, Cat J2800AMNZ). […] Thyroid volumes (mm^3) were calculated from the sum of the areas of each section over the whole cutting region. Myocardial volumes (mm^3) were calculated in a similar way as described for thyroid glands from the sum of the areas of each section over whole cutting region (5 to 6 slides, depending on respective size of the hearts). […]

Peptide text beside a SMILES is read from it.

As for “TSHR-Fc: fusion protein: first 289 amino acids of human TSH receptor (A-subunit), GGR linker and Fc portion of human IgG2”, the heart weights result in the assay with Ad-TSHR-immunized mice [1] was “trends towards reduced heart weights which did not reach statistical significance”. In the assay with Ad-TSHR-immunized mice [2], the heart rate entry was “no further increase, and significantly decreased resting heart rates at later time points”. The “serum thyroxin (T4) levels” value in the assay on Ad-TSHR-immunized mice [3] is “progressively decreasing T4 levels, which consecutively reverted to normal values”. Moreover, the thyroid size result in the assay on Ad-TSHR-immunized mice [4] was “decreased thyroid sizes”.
Turning to SPPCECHQEEDFRVTCKDIQRIPS [peptide 829], the heart weights entry in the assay on Ad-TSHR-immunized mice [1] is “trends towards reduced heart weights which did not reach statistical significance”. The heart rate entry in the assay on Ad-TSHR-immunized mice [2] is on record as “a trend which did not reach statistical significance”. Besides, in the assay with Ad-TSHR-immunized mice [3], the “serum thyroxin (T4) levels” value is recorded as “a trend which did not reach statistical significance”. The thyroid size result with Ad-TSHR-immunized mice [4] is “a trend which did not reach statistical significance”.
For the compound `CC[C@H](C)[C@@H]1NC(=O)[C@H](C(C)C)NC(=O)[C@H]([C@@H](C)O)NC(=O)[C@H](CC(C)C)NC(=O)[C@H](Cc2ccc(O)cc2)NC(=O)[C@H](CCCCN)NC(=O)[C@H](CC(N)=O)NC(=O)[C@H](CCCCN)NC(=O)[C@H](CC(N)=O)NC(=O)[C@H](CC(C)C)NC(=O)[C@H](Cc2ccc(O)cc2)NC(=O)[C@H](C(C)C)NC(=O)[C@H](C)NC(=O)[C@H](CC(=O)O)NC(=O)[C@H](CC(C)C)NC(=O)[C@H](CCCCN)NC(=O)[C@H]([C@@H](C)O)NC(=O)CNC(=O)[C@H](CC(N)=O)NC(=O)[C@H](Cc2ccccc2)NC(=O)[C@H](C)NC(=O)[C@H](Cc2ccc(O)cc2)NC(=O)CNC(=O)[C@H](CC(=O)O)NC1=O` [peptide 836] (cyclo(GYAFNGTKLDAVYLNKNKYLTVID)), the heart weights result in the assay on Ad-TSHR-immunized mice [1] is given as “significantly reduced heart weights”. For the same compound, the heart rate result in the assay on Ad-TSHR-immunized mice [2] was “no further increase, and significantly decreased resting heart rates at later time points”. Moreover, the “serum thyroxin (T4) levels” value in the assay with Ad-TSHR-immunized mice [3] is listed as “progressively decreasing T4 levels, which consecutively reverted to normal values”. Also, in the assay on Ad-TSHR-immunized mice [4], the thyroid size entry is “decreased thyroid sizes”.

The record behind these values is US11459375B2, “Cyclic peptides for the treatment of Graves' disease” (advanceCOR GmbH, priority 2017, dated 2022).
